Consider three compounds from ChEMBL document CHEMBL3603796, “Lipid-lowering polyketides from a soft coral-derived fungus Cladosporium sp. TZP29” (Bioorg Med Chem Lett, 2015).

One data set has as its system HeLa. As to the kind of experiment: Cytotoxicity against human HeLa cells up to 50 uM by SRB assay. Format: cell-based.
The test system of the next data set is SMMC-7721. As to the kind of experiment: Cytotoxicity against human SMMC7721 cells up to 50 uM by SRB assay. Format: cell-based. (In SRB staining, fixed cells bind dye roughly in proportion to their protein.)
In a further data set the test system is A549. As to the kind of experiment: Cytotoxicity against human A549 cells up to 50 uM by SRB assay. It counts as cell-based.
For another data set, the system named is HepG2. As to the kind of experiment: Lipid lowering activity in human HepG2 cells assessed as decrease in oleic acid elicited lipid accumulation after 6 hrs by oil-red O staining method. Particulars: HepG2, 6 h. It counts as functional, cell-based.
For another data set, the system named is Micrococcus luteus. As to the kind of experiment: Antibacterial activity against Micrococcus luteus by disc diffusion assay. It counts as functional, organism-based.
A further data set relates to Laribacter hongkongensis. Briefly: Antibacterial activity against Laribacter hongkongensis by disc diffusion assay. Format: functional.
Data set [1] is described as follows: Antifouling activity against Bugula neritina by settlement inhibition assay. Format: functional.
For the next data set, the system named is Amphibalanus amphitrite. As to the kind of experiment: Antifouling activity against Balanus amphitrite by settlement inhibition assay. Format: functional, organism-based.
The next data set deals with uncultured Ruegeria sp. As to the kind of experiment: Antibacterial activity against Ruegeria sp. by disc diffusion assay. Format: functional.

Calls of active or inactive are those of the source. The rule behind the calls is not given here.

With `C[C@@H](O)CCCCCC[C@H]1OC(=O)C[C@@H]1O`, the Activity entry in the data set on HeLa, in the data set on SMMC-7721 and in the data set on A549 was “Non-toxic” in each case.
Regarding `CC[C@H](C)C(=O)O[C@H]1C[C@@H](C)C=C2C=C[C@H](C)[C@H](CC[C@@H]3C[C@@H](O)CC(=O)O3)[C@H]21` [LOVASTATIN], the half-maximal inhibitory concentration (IC50) in the data set on HepG2 was 8.3 µM.
With `C[C@@H](O)CCCCC[C@H](O)[C@@H]1C=CC(=O)O1`, the Activity result with HeLa, with SMMC-7721 and in the data set on A549 was “Non-toxic” in each case. The outcome (in the data set with Micrococcus luteus; with Laribacter hongkongensis; in data set [1]; in the data set with Amphibalanus amphitrite; with uncultured Ruegeria sp.) was inactive.

As usually defined, the IC50 is the concentration at which inhibition is half-maximal.
